Laboratory results from patent US20230132535A1, “PROLIFERATION SUPPRESSING AGENT FOR CANINE CANCER CELLS” (Japan Animal Referral Medical Center, priority 2020, published 2023).
pIC50: −log10 of the molar value. Blank lines part the entries; values can stand above or below the compound they belong to.

How the values were obtained:
[1] = system: canine V595E transitional epithelial cancer cells (TCCV-Ka, TCCV-So, TCCV-Ec, TCCV-Ni, TCCV-Ic); experiment: Cell proliferation suppressing test (WST 1), five V595E transitional epithelial cancer established cell lines; format: cell-based
Source text: Using five canine V595E transitional epithelial cancer established cell lines, taken from clinical cases by the inventors so far and cloned in approximately 80 passages, the cell proliferation suppressing activity of eight human BRAF inhibiting agents (GDC0879, AZ628, PLX4720, Encorafenib, Vemurafenib, Dabrafenib, RAF265, and CEP32496), which are available and have high cell proliferation suppressing activity, was investigated. In addition, in the xenograft test system, suppression of tumor growth (anti-tumor activity) was measured and the anti-tumor activity was investigated.
1,000 to 3,000 established cell lines (TCCV-Ka, TCCV-So, TCCV-Ec, TCCV-Ni, and TCCV-Ic) per well were spread on 96 well culture plates and cultured for 24 hours, then 8 BRAF inhibiting agents (GDC0879, AZ628, PLX4720, Encorafenib, Vemurafenib, Dabrafenib, RAF265, and CEP32496) dissolved in 0.1% DMSO were added with GDC0879, AZ628, Vemurafenib, Dabrafenib, and RAF265 at 0, 50, 100, 500, 1000, 5000, and 10000 nM, PLX4720 at 0, 1, 10, 100, 1000, 5000, and 10000 nM, Encorafenib at 0, 32, 63, 125, 250, 500, and 1000 nM, CEP32496 at 0, 3, 10, 30, 100, 300, and 1000 nM, the number of surviving cells after 24, 48, and 72 hours was measured using WST 1, and the cell proliferation suppressing activity was calculated. […]

[2] = system: BRAFV595E transitional epithelial cancer cells (TCCV-Ka strain); experiment: Anti-tumor activity by a xenograft test system (TCCV-Ka strain in SCID mice); format: in vivo, SCID mouse; details: 10 mg/kg intraperitoneally, 5 times/week, compared to control group, from day 5 of administration
Method: In order to observe the anti-tumor activity in the xenograft test system, it has been reported that the tumor growth depends on the number of cells inoculated, cell strains, and animal species. Then, five strains of V595E transitional epithelial cancer established cell lines, 1×10^6 and 1×10^7 cells/200 μl, were inoculated subcutaneously on the ventral side of SCID mouse (CB17/Icr-scid/scid. Jcl, CLEA Japan), and the formation of tumors was observed.
Using the TCCV-Ka strain as a graft cell, 1×10^7 cells were inoculated on the right ventral side of 5 SCID mice in each of the administration group and the control group. Two weeks later, a tumor of approximately 5×5 mm was formed. In the control group, 10% DMSO was administered intraperitoneally, and in the administration group, 200 μl of CEP32496 suspension solution (10 mg/kg) in 10% DMSO was administered intraperitoneally. The administration was 5 times/week.

[3] = system: V595E transitional epithelial cancer cells (TCCV-So strain); experiment: Cell proliferation suppressing test (WST 1), TCCV-So strain; format: cell-based, canine; details: Canis lupus familiaris
Method: (§1) 1,000 to 3,000 established cell lines (TCCV-Ka, TCCV-So, TCCV-Ec, TCCV-Ni, and TCCV-Ic) per well were spread on 96 well culture plates and cultured for 24 hours, then 8 BRAF inhibiting agents (GDC0879, AZ628, PLX4720, Encorafenib, Vemurafenib, Dabrafenib, RAF265, and CEP32496) dissolved in 0.1% DMSO were added with GDC0879, AZ628, Vemurafenib, Dabrafenib, and RAF265 at 0, 50, 100, 500, 1000, 5000, and 10000 nM, PLX4720 at 0, 1, 10, 100, 1000, 5000, and 10000 nM, Encorafenib at 0, 32, 63, 125, 250, 500, and 1000 nM, CEP32496 at 0, 3, 10, 30, 100, 300, and 1000 nM, the number of surviving cells after 24, 48, and 72 hours was measured using WST 1, and the cell proliferation suppressing activity was calculated.
(§2) One example of the reaction curve of the BRAF inhibiting agent against canine V595E transitional epithelial cancer cells (TCC V-So strain) was shown in FIG. 1.

[4] = system: TCCV-Ni strain; experiment: Cell proliferation suppressing test (WST 1), TCCV-Ni strain; format: cell-based, canine; details: Canis lupus familiaris
[5] = system: TCCV-Ec strain; experiment: Cell proliferation suppressing test (WST 1), TCCV-Ec strain; format: cell-based, canine; details: Canis lupus familiaris; TCCV-Ec strain only
Method: as §1, §2

- pIC50 ([1]; Canis lupus familiaris, all the cell strains used (5 strains)): 6.70 to 8.05
- pIC50 [3]: 7.82
Compound: COc1cc2ncnc(Oc3cccc(NC(=O)Nc4cc(C(C)(C)C(F)(F)F)on4)c3)c2cc1OC [CEP32496, 1-(3-((6,7-dimethoxyquinazolin-4-yl)oxy)phenyl)-3-(5-(1,1,1-trifluoro-2-methylpropan-2-yl)isoxazol-3-yl)urea]
- proliferation suppressing activity compared to the other 7 BRAF inhibiting agents ([1]; 5 strains, FIG. 2): significantly higher activity
- suppression of tumor formation (anti-tumor activity) [2]: significant suppression of tumor formation

- pIC50 [4]: 5.82
Compound: CCCS(=O)(=O)Nc1ccc(F)c(C(=O)c2c[nH]c3ncc(-c4ccc(Cl)cc4)cc23)c1F [Vemurafenib]

Compound: COC(=O)N[C@@H](C)CNc1nccc(-c2cn(C(C)C)nc2-c2cc(Cl)cc(NS(C)(=O)=O)c2F)n1 [Encorafenib]
- pIC50 [5]: 6.74

Compound: Cn1c(Nc2ccc(C(F)(F)F)cc2)nc2cc(Oc3ccnc(-c4ncc(C(F)(F)F)[nH]4)c3)ccc21 [RAF265]
- pIC50 [5]: 6.82

Compound: CCCS(=O)(=O)Nc1ccc(F)c(C(=O)c2c[nH]c3ncc(Cl)cc23)c1F [PLX4720]
- pIC50 [5]: 6.70
